Reference: patent US8658646B2, “Pyrrolopyrazine kinase inhibitors” (Hoffmann-LaRoche Inc., priority 2011, dated 2014)

Assays:
[1] = target: T1, JAK3: Recombinant human kinase domain (Homo sapiens, UniProt P52333); test: Determination of IC50 of Janus Kinase (JAK) inhibition, radioactive end-point 33P-ATP assay, JAK3; type: biochemical; settings: ATP 1.5 uM, peptide 50 uM, 20 minutes, read-out: JAK3-INHIB-DR/v1~NO ADDITIVE~Enzyme_Conc = 100
T1 construct: JAK3: Recombinant human kinase domain from Millipore (Cat #14-629) or prepared; purchased Millipore 14-629
T1 sequence (P52333 822-1111 limits assumed): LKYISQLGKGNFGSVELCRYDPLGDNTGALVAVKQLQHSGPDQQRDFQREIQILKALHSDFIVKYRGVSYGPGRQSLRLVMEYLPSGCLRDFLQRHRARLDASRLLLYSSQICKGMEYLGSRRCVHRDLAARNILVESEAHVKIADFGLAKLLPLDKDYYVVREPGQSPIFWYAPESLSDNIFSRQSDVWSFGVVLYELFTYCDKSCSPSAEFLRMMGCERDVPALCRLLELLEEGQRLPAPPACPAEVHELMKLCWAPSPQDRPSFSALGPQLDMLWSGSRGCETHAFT

[2] = target: T2, recombinant human SYK360-635 (Homo sapiens, UniProt P43405); test: Determination of IC50 of Spleen Tyrosine Kinase (SYK) inhibition, 33P ATP filtration assay; type: biochemical; settings: SYK aa 360-635 0.5 nM; ATP 20 μM, peptide 5 μM, 0.1% BSA; read-out: SYK_ENZYME_FILTRATION/v1, BSA
T2 construct: made in house

IC50 [1] [nM]	IC50 [2] [nM]	SMILES
4.95	47.3	CC(NC(=O)c1c[nH]c2ncc(-c3nn(C)c4cc(Cl)ccc34)nc12)C1CCCO1 (centres unmarked) [Example I-154, 2-(6-Chloro-1-methyl-1H-indazol-3-yl)-5H-pyrrolo[2,3-b]pyrazine-7-carboxylic acid [1-(tetrahydro-furan-2-yl)-ethyl]-amide]
0.26	43.8	COC[C@H](C)NC(=O)c1c[nH]c2ncc(-c3nn(C4COC4)c4cc(F)ccc34)nc12 [Example I-103, 2-(6-Fluoro-1-oxetan-3-yl-1H-indazol-3-yl)-5H-pyrrolo[2,3-b]pyrazine-7-carboxylic acid ((S)-2-methoxy-1-methyl-ethyl)-amide]
2.1	209	COC[C@H](C)NC(=O)c1c[nH]c2ncc(-c3nn(CCN4CCCC4)c4cc(F)ccc34)nc12 [Example I-242, 2-[6-Fluoro-1-(2-pyrrolidin-1-yl-ethyl)-1H-indazol-3-yl]-5H-pyrrolo[2,3-b]pyrazine-7-carboxylic acid ((S)-2-methoxy-1-methyl-ethyl)-amide]
18.5	248	COC[C@@H](NC(=O)c1c[nH]c2ncc(-c3nn(C)c4cc(F)ccc34)nc12)[C@H](C)OC [Example I-189, 2-(6-Fluoro-1-methyl-1H-indazol-3-yl)-5H-pyrrolo[2,3-b]pyrazine-7-carboxylic acid ((1R,2S)-2-methoxy-1-methoxymethyl-propyl)-amide]
124	372	C[C@H](CN1CC[C@@H](F)C1)NC(=O)c1c[nH]c2ncc(-c3nn(C)c4cc(Cl)ccc34)nc12 [Example I-121, 2-(6-Chloro-1-methyl-1H-indazol-3-yl)-5H-pyrrolo[2,3-b]pyrazine-7-carboxylic acid [(R)-2-((R)-3-fluoro-pyrrolidin-1-yl)-1-methyl-ethyl]-amide]
391	12	Cn1nc(-c2cnc3[nH]cc(C(=O)NC4CCCC(N)C4)c3n2)c2ccc(Cl)cc21 (centres unmarked) [Example I-169, 2-(6-Chloro-1-methyl-1H-indazol-3-yl)-5H-pyrrolo[2,3-b]pyrazine-7-carboxylic acid (3-amino-cyclohexyl)-amide]
18.6	3230	C[C@@H](NC(=O)c1c[nH]c2ncc(-c3nn(C)c4cc(F)ccc34)nc12)c1cccc(OC(F)(F)F)c1 [Example I-254, 2-(6-Fluoro-1-methyl-1H-indazol-3-yl)-5H-pyrrolo[2,3-b]pyrazine-7-carboxylic acid [(R)-1-(3-trifluoromethoxy-phenyl)-ethyl]-amide]
0.745	109	C[C@@H](NC(=O)c1c[nH]c2ncc(-c3nn(C)c4c(F)c(F)ccc34)nc12)C(=O)N1CC(C#N)C1 [Example I-86, 2-(6,7-Difluoro-1-methyl-1H-indazol-3-yl)-5H-pyrrolo[2,3-b]pyrazine-7-carboxylic acid [(R)-2-(3-cyano-azetidin-1-yl)-1-methyl-2-oxo-ethyl]-amide]
0.9	33.4	CCn1nc(-c2cnc3[nH]cc(C(=O)N[C@H](C)C(=O)N4CC(C#N)C4)c3n2)c2ccc(Cl)cc21 [Example I-85, 2-(6-Chloro-1-ethyl-1H-indazol-3-yl)-5H-pyrrolo[2,3-b]pyrazine-7-carboxylic acid [(R)-2-(3-cyano-azetidin-1-yl)-1-methyl-2-oxo-ethyl]-amide]
263	197	CC(NC(=O)c1c[nH]c2ncc(-c3nn(C)c4cc(F)ccc34)nc12)C(O)C1CCOCC1 (single isomer, unassigned) [Example I-203, 2-(6-Fluoro-1-methyl-1H-indazol-3-yl)-5H-pyrrolo[2,3-b]pyrazine-7-carboxylic acid [cis-2-hydroxy-1-methyl-2-(tetrahydro-pyran-4-yl)-ethyl]-amide]
11.7	7.23	C[C@@H](NC(=O)c1c[nH]c2ncc(-c3nn(C)c4cc(F)ccc34)nc12)C(C)(F)F [Example I-56, 2-(6-Fluoro-1-methyl-1H-indazol-3-yl)-5H-pyrrolo[2,3-b]pyrazine-7-carboxylic acid ((R)-2,2-difluoro-1-methyl-propyl)-amide]
31.4	35.3	CC(C)NC(=O)c1c[nH]c2ncc(-c3nn(Cc4ccon4)c4cc(Cl)ccc34)nc12 [Example I-310, 2-(6-Chloro-1-isoxazol-3-ylmethyl-1H-indazol-3-yl)-5H-pyrrolo[2,3-b]pyrazine-7-carboxylic acid isopropylamide]
1.11	9.15	C[C@H](NC(=O)c1c[nH]c2ncc(-c3nn(C)c4cc(Cl)ccc34)nc12)C1CC1 [Example I-140, 2-(6-Chloro-1-methyl-1H-indazol-3-yl)-5H-pyrrolo[2,3-b]pyrazine-7-carboxylic acid ((S)-1-cyclopropyl-ethyl)-amide]
0.725	22.7	COC[C@H](C)NC(=O)c1c[nH]c2ncc(-c3nn(Cc4ccc(N5CCOCC5)nc4)c4cc(F)ccc34)nc12 [Example I-237, 2-[6-Fluoro-1-(6-morpholin-4-yl-pyridin-3-ylmethyl)-1H-indazol-3-yl]-5H-pyrrolo[2,3-b]pyrazine-7-carboxylic acid ((S)-2-methoxy-1-methyl-ethyl)-amide]
41.5	354	CC(NC(=O)c1c[nH]c2ncc(-c3nn(CCN(C)C)c4cc(Cl)ccc34)nc12)c1cccnc1 (centres unmarked) [Example I-246, 2-[6-Chloro-1-(2-dimethylamino-ethyl)-1H-indazol-3-yl]-5H-pyrrolo[2,3-b]pyrazine-7-carboxylic acid (1-pyridin-3-yl-ethyl)-amide]
1.61	120	C[C@@H](O)[C@@H](NC(=O)c1c[nH]c2ncc(-c3nn(C)c4cc(F)ccc34)nc12)C(=O)N1CC(F)C1 [Example I-198, 2-(6-Fluoro-1-methyl-1H-indazol-3-yl)-5H-pyrrolo[2,3-b]pyrazine-7-carboxylic acid [(1R,2R)-1-(3-fluoro-azetidine-1-carbonyl)-2-hydroxy-propyl]-amide]
13.1	37.1	Cn1nc(-c2cnc3[nH]cc(C(=O)N[C@H]4CC[C@H](O)CC4)c3n2)c2ccc(Cl)cc21 [Example I-144, 2-(6-Chloro-1-methyl-1H-indazol-3-yl)-5H-pyrrolo[2,3-b]pyrazine-7-carboxylic acid (trans-4-hydroxy-cyclohexyl)-amide]
5.83	66.5	COC[C@@H](C)NC(=O)c1c[nH]c2ncc(-c3nn(C)c4cc(Cl)ccc34)nc12 [Example I-159, 2-(6-Chloro-1-methyl-1H-indazol-3-yl)-5H-pyrrolo[2,3-b]pyrazine-7-carboxylic acid ((R)-2-methoxy-1-methyl-ethyl)-amide]
5.81	243	COC[C@H](C)NC(=O)c1c[nH]c2ncc(-c3nc(Cl)n4cc(F)ccc34)nc12 [Example I-39, 2-(3-Chloro-6-fluoro-imidazo[1,5-a]pyridin-1-yl)-5H-pyrrolo[2,3-b]pyrazine-7-carboxylic acid ((S)-2-methoxy-1-methyl-ethyl)-amide]
16.3	17.3	CC[C@H](CO)NC(=O)c1c[nH]c2ncc(-c3nn(C)c4cc(Cl)ccc34)nc12 [Example I-161, 2-(6-Chloro-1-methyl-1H-indazol-3-yl)-5H-pyrrolo[2,3-b]pyrazine-7-carboxylic acid ((R)-1-hydroxymethyl-propyl)-amide]
12.8	12.1	Cn1nc(-c2cnc3[nH]cc(C(=O)NCC(C)(C)CO)c3n2)c2ccc(F)cc21 [Example I-114, 2-(6-Fluoro-1-methyl-1H-indazol-3-yl)-5H-pyrrolo[2,3-b]pyrazine-7-carboxylic acid (3-hydroxy-2,2-dimethyl-propyl)-amide]
14.3	4.5	CC(C)NC(=O)c1c[nH]c2ncc(-c3nn(C)c4ccc(OC(F)F)cc34)nc12 [Example I-283, 2-(5-Difluoromethoxy-1-methyl-1H-indazol-3-yl)-5H-pyrrolo[2,3-b]pyrazine-7-carboxylic acid isopropylamide]
31.7	168	COC[C@@H](NC(=O)c1c[nH]c2ncc(-c3nn(C)c4cc(F)ccc34)nc12)[C@H](C)O [Example I-188, 2-(6-Fluoro-1-methyl-1H-indazol-3-yl)-5H-pyrrolo[2,3-b]pyrazine-7-carboxylic acid ((1R,2S)-2-hydroxy-1-methoxymethyl-propyl)-amide]
9.44	17.6	CC(C)CNC(=O)c1c[nH]c2ncc(-c3nn(C)c4cc(F)ccc34)nc12 [Example I-116, 2-(6-Fluoro-1-methyl-1H-indazol-3-yl)-5H-pyrrolo[2,3-b]pyrazine-7-carboxylic acid isobutyl-amide]
1.78	158	CCc1ccc2c(-c3cnc4[nH]cc(C(=O)N[C@H](C)C(=O)N5CC(C#N)C5)c4n3)nn(C)c2c1 [Example I-87]
12.6	29.1	C[C@H](NC(=O)c1c[nH]c2ncc(-c3nn(C)c4cc(Cl)ccc34)nc12)C(C)(C)C#N [Example I-80, 2-(6-Chloro-1-methyl-1H-indazol-3-yl)-5H-pyrrolo[2,3-b]pyrazine-7-carboxylic acid ((S)-2-cyano-1,2,2-trimethyl-ethyl)-amide]
19	27.2	Cn1nc(-c2cnc3[nH]cc(C(=O)N[C@@H]4CC[C@@H](C#N)C4)c3n2)c2ccc(Cl)cc21 [Example I-36, 2-(6-Chloro-1-methyl-1H-indazol-3-yl)-5H-pyrrolo[2,3-b]pyrazine-7-carboxylic acid ((1R,3R)-3-cyano-cyclopentyl)-amide]
14.2	30.2	C[C@@H](NC(=O)c1c[nH]c2ncc(-c3nn(C)c4cc(F)ccc34)nc12)c1ccccn1 [Example I-78, 2-(6-Fluoro-1-methyl-1H-indazol-3-yl)-5H-pyrrolo[2,3-b]pyrazine-7-carboxylic acid ((R)-1-pyridin-2-yl-ethyl)-amide]
